Assay results as given in publication PMC5929447 (Oncotarget, 2018).
“And” between values parts separate entries of the source, which are not always exact repeats. Identical values can stand only once.

Columns and labels:
[1] = system: isolated platelets from healthy volunteers; test: Apoptosis (annexin V) in isolated platelets; type: cell-based; conditions: Homo sapiens, Platelet; 4 healthy donors, 3 h; read-out: EC50 apoptosis (PS+) in isolated platelets
Method: Peripheral blood samples from CLL patients were obtained with informed patient consent and local ethical committee approval (UHL-09723). […] Interphase fluorescence in situ hybridization (FISH) was performed for detection of 17p13 deletion. Mantle cell lymphoma (MCL) primary cells were obtained after informed consent from MCL patients treated at the department of clinical hematology from the University Hospital of Nantes, France. Peripheral MCL cells from blood or pleural effusion, were purified after Ficoll-Hypaque separation with immuno-magnetic anti-CD19 beads (Miltenyi, Paris, France). Primary cells were cultured in RPMI-1640 supplemented with 10% FCS and 2 mM glutamine. Human platelets were isolated from citrate blood donated by healthy volunteers. Washed platelets were cultured in Hepes-buffered saline (HBS, 10 mM Hepes, 150 mM NaCl, 5 mM KCl, 1 mM MgSO4, pH 7.4).
EC50 values were calculated using GraphPadPrism (non-linear fit, sigmoidal dose response, variable slope). […] Cell death was assessed in the CD19+ primary MCL cells by annexinV-FITC staining combined with an analysis of altered cellular morphology (lower FCS). Fluorescence was analyzed on FACSCalibur.

[2] = system: BCL-2-dependent FL5.12 cells; test: Apoptosis (annexin V/PI) in FL5.12 cells expressing BCL-2 upon IL-3 withdrawal; type: cell-based, murine; conditions: 24 h upon IL-3 withdrawal
[3] = system: BCL-XL-dependent FL5.12 cells; test: Apoptosis (annexin V/PI) in FL5.12 cells expressing BCL-XL upon IL-3 withdrawal; conditions: 24 h upon IL-3 withdrawal
[4] = molecular target: MCL-1 (Homo sapiens, UniProt Q07820); test: Fluorescence polarization (FP) with Fluorescein-PUMA, MCL-1; type: binding
[5] = system: H146 cell line; test: CellTiter-Glo cell viability, H146; type: cell-based; conditions: Homo sapiens, NCI-H146; 72 h of treatment
Method: (§1) Cells were seeded into 96-well plates and treated at 8 points with 1:2 serial dilution of compounds. Cell viability was assessed and assayed for viability using CellTiter-Glo reagent (Promega) following the manufacturer's instructions. Plates were read using Tecan luminescence plate reader. Results were normalized to the viability of cells without compounds (control wells). The IC50 values were calculated using nonlinear regression algorithms in XCell software.

[6] = system: caspase-3 activity in RS4;11 tumor xenografts; test: Caspase-3 activity in RS4;11 tumor xenografts; type: in vivo; conditions: 100 mg/kg single oral gavage, 16 h post dosing, SCID mice
Method: Body weights were recorded and tumors were measured with digital calipers twice to three times a week. Tumor volume was calculated using the formula: length × width^2/2. Percent changes in body weights was calculated as (BWcurrent - BWinitial)/(BWinitial) × 100. Data is presented as percent body weight change from the day of treatment initiation. When tumors reached approximately 200 mm^3 for efficacy studies or 300 mm^3 for pharmacodynamic studies, mice were randomized. […] Mice were treated via oral gavage at 10 ml/kg with the doses and schedules described in the figure. For pharmacodynamic studies, blood and tumors were removed 16 h post dosing and immediately snap-frozen. Total proteins were extracted from the tumors and caspase-3 activity was assessed in triplicate using CaspACE® Assay System (Promega). Platelet cell counts were determined 16 hours post dosing using Coulter AcT diff (Beckman).

[7] = molecular target: BCL-2 (Homo sapiens, UniProt P10415); test: Isothermal titration calorimetry (ITC), BCL-2; conditions: binding to BCL-2
Method: The protein was dialyzed prior to use in 2 L of 25 mM HEPES, 150 mM NaCl, 5% glycerol (v/v), 0.5% MTG (v/v) at pH 7.4 for 3 hours at room temperature. The protein was dialyzed using a 3.5 K MWCO Slide-A-Lyzer™ cassette. The protein solution was recovered, spin-filtered through a […] frit. The filtered protein was quantified by UV absorbance at 280 nm using an extinction coefficient of 36440 M^-1cm^-1. 500 ml of dialysis buffer was retained (remainder used to rinse out SCHOT bottle) and degassed for a minimum of 30 mins under vacuum with constant stirring. […] The solutions were carefully matched to ensure same solvent and buffer conditions were present in both syringe and cell (this is to minimize heat of dilution effects). The final solution was the dialysis buffer plus 1% DMSO and 0.05% P20. The experiment was performed over 13 injections with stirring at 1000 rpm, gain setting low and at 25° C. Pure water was used in the reference cell. The first injection was 0.5 μl with a duration of 1 second with a gap of 150 seconds until the further 12 injections of 3.05 μl with a duration 6.1 seconds and a 240 second interval between injections. Data was analyzed using the vendor supplied software, PEAQ-ITC Analysis Software. The data model used was the single site model. The data shown is the average of 2 or 3 independent experiments.

[8] = system: platelets; test: Platelet counts in RS4;11-bearing mice; type: in vivo; conditions: 100 mg/kg single oral dose, 16 h post dosing
Method: (§2) When tumors reached approximately 200 mm^3 for efficacy studies or 300 mm^3 for pharmacodynamic studies, mice were randomized. […] Mice were treated via oral gavage at 10 ml/kg with the doses and schedules described in the figure.
For pharmacodynamic studies, blood and tumors were removed 16 h post dosing and immediately snap-frozen. Total proteins were extracted from the tumors and caspase-3 activity was assessed in triplicate using CaspACE® Assay System (Promega). Platelet cell counts were determined 16 hours post dosing using Coulter AcT diff (Beckman).

[9] = molecular target: BCL-2/BAX complex (Homo sapiens, UniProt P10415); test: Co-immunoprecipitation in BCL-2-overexpressing HeLa cells; type: cell-based; conditions: 2 h
[10] = molecular target: BCL-XL/BAX complex (Homo sapiens, UniProt Q07817); test: Co-immunoprecipitation in BCL-XL-overexpressing HeLa cells; conditions: 2 h
Method: Effecten reagent (Qiagen), with 3xFlag-tagged BCL-XL
24 h later, transfected Hela and RS4;11
were put under neomycin selection (800 µg/ml, Invitrogen) were then subjected to immunoprecipitation with anti-

[11] = system: RS4;11 cell line; test: CellTiter-Glo cell viability, RS4;11; type: cell-based; conditions: Homo sapiens, 72 h of treatment
Method: as §1

[12] = system: Toledo xenograft; test: Toledo xenograft efficacy; type: in vivo, mice; conditions: 200 mg/kg oral five times a week for 3 weeks, day 21
Method: Experiments were performed in SCID/beige female mice from Charles River Laboratories, Massachusetts, USA. Animals, approximately 7-8 weeks of age at the start of the treatment were allowed to acclimate in animal facility with access to food and water ad libitum for 3 days prior to manipulation. Animals were handled in accordance with IACUC regulations and guidelines for experiments performed in the USA and with European and French regulation for the protection of vertebrate animals for experiments performed in France. Animal well-being and behavior, including grooming and ambulation were monitored at least once a day. General health of mice was monitored and mortality recorded daily. Any moribund animals were sacrificed.
RS4;11 Acute Lymphoblastic Leukemia cell lines was obtained from ATCC. Toledo (Diffuse Large B-Cell Lymphoma) human cell lines were obtained internally through Bioresources and the Novartis-Cancer Cell Line Encyclopedia. Cells were free of Mycoplasma and murine viral contamination in the IMPACT VIII PCR assay panel (IDEXX RADIL, IDEXX laboratories INC, Westbrook, ME, USA). Cells used for subcutaneous implantation were cultured in RPMI plus 10% FBS at 37° C in a humidified atmosphere containing 5% carbon dioxide). […] Cells were resuspended in a 1:1 mixture of cold DPBS (Dulbecco's Phosphate-Buffered Saline) and Matrigel™ (Becton-Dickinson #354234) at a concentration of 3 × 10^7 cells/ml for Toledo cells, and of 1 × 10^7 cells/ml for RS4;11 cells.
For each experiment, female SCID/beige mice were implanted subcutaneously (right axillary region) with 3 × 10^6 Toledo or RS4;11 (1 × 10^6 cells for efficacy studies and 1 × 10^7 cells for pharmacodynamics studies) suspended in 1:1 mixture of cold DPBS and Matrigel™ in a total volume of 100 μl. Body weights were recorded and tumors were measured with digital calipers twice to three times a week. Tumor volume was calculated using the formula: length × width^2/2. Percent changes in body weights was calculated as (BWcurrent - BWinitial)/(BWinitial) × 100. Data is presented as percent body weight change from the day of treatment initiation.
as §2
For efficacy studies, percent treatment/control (T/C) values were calculated using the following formula: %T/C = 100 × ΔT/ΔC if ΔT > 0. Regression = 100 × ΔT/Tinitial if ΔT < 0 where: T = mean tumor burden of the drug-treated group on the final day of the study; ΔT = mean tumor burden of the drug-treated group on the final day of the study – mean tumor burden of the drug-treated group on initial day of dosing; Tinitial = mean tumor burden of the drug-treated group on initial day of dosing; C = mean tumor burden of the control group on the final day of the study; and ΔC = mean tumor burden of the control group on the final day of the study – mean tumor burden of the control group on initial day of dosing. If the tumor volume was less than 14 mm^3 for more than 3 consecutive measurements, animals were considered in complete regression (CR).

[13] = molecular target: T1, BFL-1 (Homo sapiens, UniProt Q16548); test: Fluorescence polarization (FP) with Fluorescein-PUMA, BFL-1; conditions: at 3E-05 M
T1 sequence (Q16548 1-175): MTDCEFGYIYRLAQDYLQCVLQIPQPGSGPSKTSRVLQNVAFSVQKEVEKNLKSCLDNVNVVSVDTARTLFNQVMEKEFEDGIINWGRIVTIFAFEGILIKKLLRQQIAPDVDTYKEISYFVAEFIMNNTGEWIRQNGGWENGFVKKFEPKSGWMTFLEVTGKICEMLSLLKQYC
Method: Final concentrations of MCL-1, BFL-1, BCL-2 and BCL-XL proteins were 10, 10, 10 and 20 nM respectively. The assay plates were incubated for 2 hours at room temperature and the FP was measured on a Synergy 2 reader (Ex. 528 nm, Em. 640 nm, Cut-off 510 nm). The binding of increasing doses of compound was expressed as a percentage reduction in mP compared to the window established between ‘DMSO only’ and ‘total inhibition’ control (30 μM PUMA). […] The KI was subsequently calculated as previously described [42].

Chain of BCL-2 (P10415 whole entry): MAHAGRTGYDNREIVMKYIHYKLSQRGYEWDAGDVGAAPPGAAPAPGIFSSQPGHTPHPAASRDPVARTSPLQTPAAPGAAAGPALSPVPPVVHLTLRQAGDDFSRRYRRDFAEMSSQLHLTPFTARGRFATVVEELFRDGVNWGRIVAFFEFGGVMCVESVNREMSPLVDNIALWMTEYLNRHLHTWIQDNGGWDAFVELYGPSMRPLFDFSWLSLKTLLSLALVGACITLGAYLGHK
Chain of MCL-1 (Q07820 whole entry): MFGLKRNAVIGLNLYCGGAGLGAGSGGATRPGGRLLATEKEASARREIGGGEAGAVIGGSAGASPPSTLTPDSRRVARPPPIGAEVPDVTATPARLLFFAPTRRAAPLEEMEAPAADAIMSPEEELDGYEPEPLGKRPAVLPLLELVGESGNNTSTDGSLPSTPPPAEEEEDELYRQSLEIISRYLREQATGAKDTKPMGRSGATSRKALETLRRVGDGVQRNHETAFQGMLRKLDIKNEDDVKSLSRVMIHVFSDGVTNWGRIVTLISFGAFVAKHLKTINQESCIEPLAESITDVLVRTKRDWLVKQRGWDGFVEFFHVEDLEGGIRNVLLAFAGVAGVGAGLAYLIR
Chain of BCL-XL/BAX complex (Q07817 whole entry, one chain of several): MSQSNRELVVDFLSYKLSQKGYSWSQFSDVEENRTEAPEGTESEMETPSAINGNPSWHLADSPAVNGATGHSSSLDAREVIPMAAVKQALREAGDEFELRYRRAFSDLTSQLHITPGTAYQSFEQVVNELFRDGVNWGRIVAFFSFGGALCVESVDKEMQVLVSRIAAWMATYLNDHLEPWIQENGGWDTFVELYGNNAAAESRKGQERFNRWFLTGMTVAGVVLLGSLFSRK
Chain of BCL-2/BAX complex (P10415 whole entry, one chain of several): as the sequence (P10415 whole entry) above

SMILES | EC50 [1] [nM] | apoptosis induction (PS+ cells) in BCL-2-dependent FL5.12 cells [2] | apoptosis induction (PS+ cells) in BCL-XL-dependent FL5.12 cells [3] | FP_MCL-1, % of inhibition at the maximal tested concentration ([4]; at 10E-06 M) [%@10E-06] | IC50 [5] [nM] | caspase-3 activity in tumor, times higher than in vehicle-treated animals [6] | N (sites), stoichiometry [7] [sites] | ∆H (enthalpy delta) [7] | platelet counts in vivo [8] | effect on BCL-2/BAX complex in BCL-2-overexpressing HeLa cells [9] | effect on BCL-XL/BAX complex in BCL-XL-overexpressing HeLa cells [10] | IC50 [11] [nM] | FP_MCL-1, % of inhibition at the maximal tested concentration ([4]; at 30E-06 M) | % T/C [12] [% T/C] | Mean TV change ([12]; mean ± s.e.m.) [mm3] | FP_BFL-1, % of inhibition at the maximal tested concentration [13] [%@3E-05]
CN(C)CC[C@H](CSc1ccccc1)Nc1ccc(S(=O)(=O)NC(=O)c2ccc(N3CCN(Cc4ccccc4-c4ccc(Cl)cc4)CC3)cc2)cc1[N+](=O)[O-] [ABT-737, reference compound] | 30 | efficiently induced apoptosis | efficiently induced apoptosis |  |  |  |  |  |  |  |  |  |  |  |  | 
CC1(C)CCC(c2ccc(Cl)cc2)=C(CN2CCN(c3ccc(C(=O)NS(=O)(=O)c4ccc(N[C@H](CCN5CCOCC5)CSc5ccccc5)c(S(=O)(=O)C(F)(F)F)c4)cc3)CC2)C1 [ABT-263, reference compound] |  |  |  | 9.4 | 49.7 | about 20 times | 0.8 | –13.1 kcal/mol | strong decrease of platelet counts | disrupt both BCL-2/BAX and BCL-XL/BAX complexes | disrupt both BCL-2/BAX and BCL-XL/BAX complexes | 41.5 |  |  |  | 
CC1(C)CCC(CN2CCN(c3ccc(C(=O)NS(=O)(=O)c4ccc(NCC5CCOCC5)c([N+](=O)[O-])c4)c(Oc4cnc5[nH]ccc5c4)c3)CC2)=C(c2ccc(Cl)cc2)C1 [ABT-199, reference compound] |  |  |  |  |  |  | 1.1 | –12.1 kcal/mol |  |  |  |  | 14.9% and 11.8% | 6 | 104.44 ± 70.31 | 6.4
